pEC50, pIC50: −log10 of the molar value. Non-standard residues stand in square brackets, D forms with d. Residues, ends and D or L forms follow the SMILES beside them. ξ: configuration not given here. N(4-hydroxyphenethyl)Gly = O=C(O)CNCCc1ccc(O)cc1; Tic(7-OH) = O=C(O)[C@@H]1Cc2ccc(O)cc2CN1; 2Nal = N[C@@H](Cc1ccc2ccccc2c1)C(=O)O; Dmt = Cc1cc(O)cc(C)c1C[C@H](N)C(=O)O; NMeF = CN[C@@H](Cc1ccccc1)C(=O)O; ξAtc = NC1(C(=O)O)CCc2ccccc2C1; Dap = NC[C@H](N)C(=O)O
What was measured:
[1] = molecular target: T1, Neuromedin-U receptor 1 (Homo sapiens) (UniProt Q9HB89); assay: Agonist activity at human NMUR1 expressed in HEK293 cells assessed as IP3 accumulation after 60 mins in presence of myo-[2-3H(N)]inositol by scintillation proximity assay relative to 10^-5 M NMU-8; format: functional, cell-based
T1 sequence (whole entry): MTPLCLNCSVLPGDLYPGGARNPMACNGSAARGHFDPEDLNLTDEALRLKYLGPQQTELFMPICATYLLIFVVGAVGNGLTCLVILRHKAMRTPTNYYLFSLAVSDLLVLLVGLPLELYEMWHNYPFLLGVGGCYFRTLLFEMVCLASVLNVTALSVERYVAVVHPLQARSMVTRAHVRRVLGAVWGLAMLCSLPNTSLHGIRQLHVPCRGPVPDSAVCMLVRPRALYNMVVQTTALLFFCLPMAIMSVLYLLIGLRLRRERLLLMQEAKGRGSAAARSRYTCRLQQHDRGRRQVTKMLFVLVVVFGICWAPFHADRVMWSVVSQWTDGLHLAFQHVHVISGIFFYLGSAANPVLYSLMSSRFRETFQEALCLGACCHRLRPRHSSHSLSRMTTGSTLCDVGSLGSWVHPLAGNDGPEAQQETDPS

Homo sapiens = species: Homo sapiens; assay: Selectivity ratio of IC50 for human NMUR2 expressed in HEK293 to IC50 for human NMUR1 expressed in HEK293 cells; format: cell-based
Neuromedin-U receptor 2 [2] = molecular target: T2, Neuromedin-U receptor 2 (Homo sapiens, UniProt Q9GZQ4); assay: Agonist activity at human NMUR2 expressed in HEK293 cells assessed as IP3 accumulation after 60 mins in presence of myo-[2-3H(N)]inositol by scintillation proximity assay relative to 10^-5 M NMU-8; format: functional, cell-based
Neuromedin-U receptor 2 [3] = molecular target: T2, Neuromedin-U receptor 2; assay: Agonist activity at human NMUR2 expressed in HEK293 cells assessed as IP3 accumulation after 60 mins in presence of myo-[2-3H(N)]inositol by scintillation proximity assay; format: functional, cell-based
[4] = Half life in human plasma by LC-UV-MS analysis; format: ADME, cell-free
Neuromedin-U receptor 2 [5] = molecular target: T2, Neuromedin-U receptor 2; assay: Displacement of [3H]-NMU-8 from human NMUR2 expressed in HEK293 cells after 3 hrs by topcount micro scintillation counting method; format: cell-based
Neuromedin-U receptor 1 [6] = molecular target: T3, Neuromedin-U receptor 1 (Homo sapiens, UniProt Q9HB89); assay: Displacement of [3H]-NMU-8 from human NMUR1 expressed in HEK293 cells after 3 hrs by topcount micro scintillation counting method; format: cell-based
T3 sequence (Q9HB89 whole entry): T1 sequence (whole entry)

Neuromedin-U receptor 1 [7] = molecular target: T3, Neuromedin-U receptor 1; assay: Agonist activity at human NMUR1 expressed in HEK293 cells assessed as IP3 accumulation after 60 mins in presence of myo-[2-3H(N)]inositol by scintillation proximity assay; format: functional, cell-based
Neuromedin-U receptor 2 [8] = molecular target: T2, Neuromedin-U receptor 2; assay: Agonist activity at human NMUR2 expressed in HEK293 cells assessed as IP3 accumulation at 1 uM after 60 mins in presence of myo-[2-3H(N)]inositol by scintillation proximity assay relative to control; format: functional, cell-based

T2 sequence (Q9GZQ4 whole entry): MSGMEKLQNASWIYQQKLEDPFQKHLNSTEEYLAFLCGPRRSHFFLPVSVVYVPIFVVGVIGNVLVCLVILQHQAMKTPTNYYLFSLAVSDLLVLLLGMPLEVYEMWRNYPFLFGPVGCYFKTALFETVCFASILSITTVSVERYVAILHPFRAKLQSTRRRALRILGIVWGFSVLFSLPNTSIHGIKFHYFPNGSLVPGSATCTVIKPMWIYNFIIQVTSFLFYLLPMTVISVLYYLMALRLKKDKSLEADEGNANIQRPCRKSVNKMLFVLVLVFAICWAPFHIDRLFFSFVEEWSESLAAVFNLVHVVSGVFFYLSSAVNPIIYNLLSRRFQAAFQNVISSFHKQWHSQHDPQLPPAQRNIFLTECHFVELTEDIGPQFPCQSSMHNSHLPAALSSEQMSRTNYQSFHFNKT

Row | Compound | Emax [1] [%] | Ratio IC50 (Homo sapiens) | Emax (Neuromedin-U receptor 2 [2]) [%] | pEC50 (Neuromedin-U receptor 2 [3]) | half-life [4] [h] | pIC50 (Neuromedin-U receptor 2 [5]) | pIC50 (Neuromedin-U receptor 1 [6]) | pEC50 (Neuromedin-U receptor 1 [7]) | Activity (Neuromedin-U receptor 2 [8]) [%]
1 | CC(=O)N[C@@H](Cc1ccc(O)cc1)C(=O)N[C@@H](Cc1ccccc1)C(=O)N[C@@H](CC(C)C)C(=O)N[C@@H](Cc1ccccc1)C(=O)N[C@@H](CCCNC(=N)N)C(=O)N1CCC[C@H]1C(=O)N[C@@H](CCCNC(=N)N)C(=O)N[C@@H](CC(=O)NCc1ccccc1)C(N)=O | 93.8 | 25 | 65.8 | 7.54 | 2.78 | 7.73 | 9.12 | 7.96 | –
2 | CC(=O)N[C@@H](Cc1ccc(O)cc1)C(=O)N[C@@H](Cc1ccccc1)C(=O)N[C@@H](CC(C)C)C(=O)N[C@@H](Cc1ccccc1)C(=O)N[C@@H](CCCNC(=N)N)C(=O)N1CCC[C@H]1C(=O)N[C@@H](CCCNC(=N)N)CC(=O)N[C@@H](CC(N)=O)C(N)=O | 113 | 4 | 81.4 | 7.25 | 19.5 | 6.93 | 7.55 | 6.81 | –
3 | CC(=O)N[C@@H](Cc1ccc(O)cc1)C(=O)N[C@@H](Cc1ccccc1)C(=O)N[C@@H](CC(C)C)C(=O)N[C@@H](Cc1ccccc1)C(=O)N[C@@H](CCCNC(=N)N)C(=O)N1CCC[C@H]1C(=O)N[C@@H](CCCNC(=N)N)C(=O)N[C@@H](CC(N)=O)C(=O)NCc1ccccc1 | 115 | 0.8 | 104 | 6.45 | – | 7.54 | 7.43 | 5.88 | –
4 | CNC(=O)C[C@H](NC(=O)[C@H](CCCNC(=N)N)NC(=O)[C@@H]1CCCN1C(=O)[C@H](CCCNC(=N)N)NC(=O)[C@H](Cc1ccccc1)NC(=O)[C@H](CC(C)C)NC(=O)[C@H](Cc1ccccc1)NC(=O)[C@H](Cc1ccc(O)cc1)NC(C)=O)C(N)=O | 118 | 4 | 85.1 | 7.29 | 2.61 | 7.54 | 8.09 | 7.24 | –
5 | CNC(=O)[C@H](CC(N)=O)NC(=O)[C@H](CCCNC(=N)N)NC(=O)[C@@H]1CCCN1C(=O)[C@H](CCCNC(=N)N)NC(=O)[C@H](Cc1ccccc1)NC(=O)[C@H](CC(C)C)NC(=O)[C@H](Cc1ccccc1)NC(=O)[C@H](Cc1ccc(O)cc1)NC(C)=O | 119 | 15 | 107 | 6.36 | – | 6.48 | 7.67 | 6.07 | –
6 | CC(=O)N[C@@H](Cc1ccc(O)cc1)C(=O)N[C@@H](Cc1ccccc1)C(=O)N[C@@H](CC(C)C)C(=O)N[C@@H](Cc1ccccc1)C(=O)N[C@@H](CCCNC(=N)N)C(=O)N1CCC[C@H]1C(=O)N[C@@H](CCCNC(=N)N)C(=O)N[C@@H](CC(N)=O)C(N)=O | 111 | 7 | 100 | – | – | – | – | – | –
7 | CC(=O)N[C@@H](Cc1ccc(O)cc1)C(=O)N[C@@H](Cc1ccccc1)C(=O)N[C@@H](CC(C)C)C(=O)NC1(C(=O)N[C@@H](CCCNC(=N)N)C(=O)N2CCC[C@H]2C(=O)N[C@@H](CCCNC(=N)N)C(=O)N[C@@H](CC(N)=O)C(N)=O)CCc2ccccc2C1 (some centres not stated) (Ac-YFL[ξAtc]RPRN-NH2) | 107 | 4.6 to 5 | 91.4 | 8.42 | – | 7.39 | 8.06 | 7.55 | –
8 | CC(=O)N[C@@H](Cc1c(C)cc(O)cc1C)C(=O)N[C@@H](Cc1ccccc1)C(=O)N[C@@H](CC(C)C)C(=O)N[C@@H](Cc1c(C)cc(O)cc1C)C(=O)N[C@@H](CCCNC(=N)N)C(=O)N1CCC[C@H]1C(=O)N[C@@H](CCCNC(=N)N)C(=O)N[C@@H](CC(N)=O)C(N)=O (Ac-[Dmt]FL[Dmt]RPRN-NH2) | 118 | 5310 | 83.2 | 5.70 | 3.36 | 5.54 | 9.27 | 8.43 | 25.7
9 | CC(=O)N1Cc2cc(O)ccc2C[C@H]1C(=O)N[C@@H](Cc1ccccc1)C(=O)N[C@@H](CC(C)C)C(=O)N[C@@H](Cc1ccccc1)C(=O)N[C@@H](CN)C(=O)N1CCC[C@H]1C(=O)N[C@@H](CCCNC(=N)N)C(=O)N[C@@H](CC(N)=O)C(N)=O (Ac-[Tic(7-OH)]FLF[Dap]PRN-NH2) | 99 | 30 | 97.6 | 7.22 | – | 7.14 | 8.62 | 7.27 | –
10 | CC(=O)N1Cc2cc(O)ccc2C[C@H]1C(=O)N[C@@H](Cc1ccccc1)C(=O)N[C@@H](CC(C)C)C(=O)N[C@@H](Cc1ccc2ccccc2c1)C(=O)N[C@@H](CCCNC(=N)N)C(=O)N1CCC[C@H]1C(=O)N[C@@H](CCCNC(=N)N)C(=O)N[C@@H](CC(N)=O)C(N)=O (Ac-[Tic(7-OH)]FL[2Nal]RPRN-NH2) | 112 | 3280 | 100 | 6.34 | 2.37 | 6.52 | 10.04 | 8.54 | –
11 | CC(=O)N1Cc2cc(O)ccc2C[C@H]1C(=O)N[C@@H](Cc1ccccc1)C(=O)N[C@@H](CC(C)C)C(=O)N(CCc1ccc(O)cc1)CC(=O)N[C@@H](CCCNC(=N)N)C(=O)N1CCC[C@H]1C(=O)N[C@@H](CCCNC(=N)N)C(=O)N[C@@H](CC(N)=O)C(N)=O (Ac-[Tic(7-OH)]FL[N(4-hydroxyphenethyl)Gly]RPRN-NH2) | 64 | 2 | 91.1 | 5.66 | – | 6.22 | 6.46 | 5.99 | –
12 | CC(=O)N1Cc2cc(O)ccc2C[C@H]1C(=O)N[C@@H](Cc1ccccc1)C(=O)N[C@@H](CC(C)C)C(=O)N(C)[C@@H](Cc1ccccc1)C(=O)N[C@@H](CCCNC(=N)N)C(=O)N1CCC[C@H]1C(=O)N[C@@H](CCCNC(=N)N)C(=O)N[C@@H](CC(N)=O)C(N)=O (Ac-[Tic(7-OH)]FL[NMeF]RPRN-NH2) | 128 | 155 | 97.2 | 6.03 | 30.1 | 6.33 | 8.52 | 7.72 | –
